Assays:
Assay type in all cases: cell-based
[1] = tested on: primary human fibroblasts derived from IPF patients (LL29 cells), α-smooth muscle actin (αSMA); test: Inhibition of the fibrotic process: TGF-β1-treated primary human fibroblasts from IPF patients, αSMA staining; settings: Fibroblast, 96 h, LL29 fibroblasts from IPF patients, TGF-β1 20 ng/mL, 4 days, inhibition of fibrotic process
Excerpt: Representative compounds were screened using primary human fibroblasts (derived from IPF patients) treated with TGF-β1 to determine their ability to inhibit the fibrotic process.
Primary human fibroblasts derived from IPF patients (LL29 cells) [^1Xiaoqiu Liu, et. al., “Fibrotic Lung Fibroblasts Show Blunted Inhibition by cAMP Due to Deficient cAMP Response Element-Binding Protein Phosphorylation”, Journal of Pharmacology and Experimental Therapeutics (2005), 315(2), 678-687; ^2Watts, K. L., et. al., “RhoA signaling modulates cyclin D1 expression in human lung fibroblasts; implications for idiopathic pulmonary fibrosis”, Respiratory Research (2006), 7(1), 88] were obtained from American Type Culture Collection (ATCC) and expanded in F12 medium supplemented with 15% Fetal Bovine Serum and Penicillin/Streptomycin.
Each compound was dissolved in DMSO as a 10 mM stock and used to prepare compound source plates. Serial dilution (1:2, 11-point dose-response curves from 10 μM to 1.87 nM) and compound transfer was performed using the ECHO 550 (Labcyte, Sunnyvale, Calif.) into 384-well clear bottom assay plates (Greiner Bio-One) with appropriate DMSO backfill for a final DMSO concentration of 0.1%. LL29 cells are plated at 1,500 cells/well in 80 μL/well F12 medium supplemented with 1% Fetal Bovine Serum. One hour after addition of the cells, TGF-β1 (Peprotech; 20 ng/mL) was added to the plates to induce fibrosis (ref. 1 and 2 above). Wells treated with TGF-β1 and containing DMSO were used as controls. Cells were incubated at 37° C. and 5% CO2 for 4 days. Following incubation for 4 days, SYTOX green nucleic acid stain (Life Technologies [Thermo Fisher Scientific]) was added to the wells at a final concentration of 1 μM and incubated at room temperature for 30 min. Cells were then fixed using 4% formaldehyde (Electron Microscopy Sciences), washed 3 times with PBS followed by blocking and permeabilization using 3% Bovine Serum Albumin (BSA; Sigma) and 0.3% Triton X-100 (Sigma) in PBS. Cells were then stained with antibody specific to α-smooth muscle actin (αSMA; Abcam) (ref. 1 and 2 above) in 3% Bovine Serum Albumin (BSA; Sigma) and 0.3% Triton X-100 (Sigma) in PBS, and incubated overnight at 4° C. Cells were then washed 3 times with PBS, followed by incubation with Alexa Flor-647 conjugated secondary antibody (Life Technologies [Thermo Fisher Scientific]) and DAPI at room temperature for 1 hour. Cells were then washed 3 times with PBS and plates were sealed for imaging. αSMA staining was imaged by excitation at 630 nm and emission at 665 nm and quantified using the Compartmental Analysis program on the CellInsight CX5 (Thermo Scientific). Dead or apoptotic cells were excluded from analysis based on positive SYTOX green staining. % of total cells positive for αSMA were counted in each well and normalized to the average of 11 wells treated with TGF-β1 on the same plate using Dotmatics' Studies Software. The normalized averages (fold change over untreated) of 3 replicate wells for each compound concentration were used to create dose-responses curves and EC50 values were calculated using non-linear regression curve fit in the Dotmatics' Studies Software. For EC50 of >10 μM, the percent inhibition at 10 μM is provided.

[2] = tested on: IL-6 (THP-1 cells); test: Inhibition of IL-6 in LPS-stimulated THP-1 monocytes (HTRF); settings: Homo sapiens, LPS 500 ng/mL, IL-6 by HTRF
Description: Human monocyte cell line (THP-1 cells; Catalog # TIB-202, ATCC, Manassas, Va.) were cultured in Roswell Park Memorial Institute (RPMI) 1640 Medium (Catalog #21870-100, Buffalo, N.Y.) with 1% L-glutamine, 1% HEPES, 1% Sodium Pyruvate, 2% Sodium Bicarbonate supplemented with 100 units/mL penicillin, 50 μg/mL streptomycin, 2-mercaptoethanol (0.05 mM) [basal medium] and 10% fetal bovine serum (Catalog #16140089, Life Technologies, Carlsbad, Calif.) at 37° C. and 5% CO2.
THP-1 cells were cultured in basal media with 1% FBS for 24 hours before the start of the assay. Each compound was dissolved in DMSO as a 10 mM stock and used to prepare compound source plates. Serial dilution (1:3, 10-point dose-response curves starting from 10 μM) and compound transfer was performed using the ECHO 550 (Labcyte, Sunnyvale, Calif.) into 384-well white low volume assay plates (Greiner Bio-One) with appropriate DMSO backfill for a final DMSO concentration of 0.1%. THP-1 cells were plated at 5000 cells/well in the 384-well plates and incubated at 37° C. for 2 h. 500 ng/mL of LPS was added after 2 hours and cells were incubated for another 22 hours at 37° C. Plates were spun in a centrifuge for 1 minute at […] and a mixture of anti-IL6 XL665, and anti-IL6 Cryptate diluted in reconstitution buffer (Cisbio Inc.) was added to each well. Following incubation for 3 hrs at room temperature, Homogeneous Time-Resolved Fluorescence (HTRF) was measured using the Envision (Perkin Elmer) at 665 nm and […]. The ratio of fluorescence at 665 nm to 620 nm was used as a readout for IL6 quantification. All samples were processed in duplicate. Readings were normalized to DMSO treated cells and normalized activities were utilized for EC50 calculations using the dose-response log (inhibitor) vs. response -variable slope (four parameters) nonlinear regression feature available in GraphPad Prism 5.0 (or Dotmatics). For EC50 of >10 μM, the percent inhibition at 10 μM is provided.

[3] = tested on: Wnt activity (Sp5-Luc reporter, SW480 colon carcinoma cells); test: Screening assay for Wnt activity: Sp5-Luc reporter gene assay in SW480 cells; settings: Homo sapiens, overnight incubation, 10-point dose-response from 10 μM
Excerpt: The screening assay for Wnt activity is described as follows. Reporter cell lines can be generated by stably transducing cancer cell lines (e.g., colon cancer) or primary cells (e.g., IEC-6 intestinal cells) with a lentiviral construct that includes a Wnt-responsive promoter driving expression of the firefly luciferase gene.
SW480 colon carcinoma cells were transduced with a lentiviral vector expressing luciferase with a human Sp5 promoter consisting of a sequence of eight TCF/LEF binding sites. SW480 cells stably expressing the Sp5-Luc reporter gene and a hygromycin resistance gene were selected by treatment with 150 μg/mL of hygromycin for 7 days. These stably transduced SW480 cells were expanded in cell culture and used for all further screening activities. Each compound was dissolved in DMSO as a 10 mM stock and used to prepare compound source plates. Serial dilution (1:3, 10-point dose-response curves starting from 10 μM) and compound transfer was performed using the ECHO 550 (Labcyte, Sunnyvale, Calif.) into 384-well white solid bottom assay plates (Greiner Bio-One) with appropriate DMSO backfill for a final DMSO concentration of 0.1%. For Sp5-Luc reporter gene assays, the cells were plated at 4,000 cells/well in 384-well plates with medium containing 1% fetal bovine serum and incubated overnight at 37° C. and 5% CO2. Following incubation, 20 μl of BrightGlo luminescence reagent (Promega) was added to each well of the 384-well assay plates. The plates were placed on an orbital shaker for 2 min and then luminescence was quantified using the Envision (Perkin Elmer) plate reader. Readings were normalized to DMSO only treated cells, and normalized activities were utilized for EC50 calculations using the dose-response log (inhibitor) vs. response -variable slope (four parameters) nonlinear regression feature available in GraphPad Prism 5.0 (or Dotmatics). For EC50 of >10 μM, the percent inhibition at 10 μM is provided.

[4] = tested on: SW480 colon cancer cells; test: Cell viability assay (CellTiter-Blue), four days; settings: Homo sapiens, 96 h, CellTiter-Blue cell viability
Description: Representative compounds were screened using the following assay procedure to assess the effect on cell viability as described below.
Each compound was dissolved in DMSO as a 10 mM stock and used to prepare compound source plates. Serial dilution (1:3, 8-point dose-response curves from 10 μM to 0.0045 μM) and compound transfer was performed using the ECHO 550 (Labcyte, Sunnyvale, Calif.) into 96-well clear bottom, black-walled plates (Corning-Costar).
Approximately 2×10^3 SW480 colon cancer cells were seeded into each well and allowed to incubate in the presence or absence of compound for four days at 37° C./5% CO2. Eight replicates of DMSO-treated cells served as controls and cells treated with compound were performed in duplicate.
After incubation, 20 μL of CellTiter-Blue (Promega) was added to each well allowed to incubate for approximately 3 hours. This reagent was a buffered solution which contains resazurin, metabolically active cells were able to reduce rezarurin (blue) into resorufin (pink) which was highly fluorescent. This measured fluorescence was used as a readout for cell viability.
After incubation, the plates were read at Ex 560 nm Em 590 nm (Cytation 3, BioTek). Dose-response curves were generated and EC50 concentration values were calculated using non-linear regression curve fit in the GraphPad Prism (San Diego, Calif.) or Dotmatics' Studies Software (Bishops Stortford, UK). For EC50 of >10 μM, the percent inhibition at 10 μM is provided.

## CN1CCN(c2ccnc3[nH]c(-c4n[nH]c5ccc(-c6cncc(OCc7ccccc7)c6)nc45)nc23)CC1 [Compound 646, 5-(5-(Benzyloxy)pyridin-3-yl)-3-(7-(4-methylpiperazin-1-yl)-3H-imidazo [4,5-b]pyridin-2-yl)-1H-pyrazolo[4,3-b]pyridine]
[1]
  EC50: 1710 nM
[2]
  EC50: 1500 nM
[3]
  EC50: 1810 nM
[4]
  EC50: 1160 nM

## Cc1ncc(-c2ccc3[nH]nc(-c4nc5c(-c6cc(F)cc(NCCN(C)C)c6)ccnc5[nH]4)c3n2)n1C [Compound 781, N^1-(3-(2-(5-(1,2-Dimethyl-1H-imidazol-5-yl)-1H-pyrazolo[4,3-b]pyridin-3-yl)-3H-imidazo[4,5-b]pyridin-7-yl)-5-fluorophenyl)-N^2,N^2-dimethylethane-1,2-diamine]
[1]
  EC50: 4800 nM
[2]
  EC50: 638 nM
[3]
  EC50: 620 nM
[4]
  EC50: 927 nM

## Cc1ccc(-c2ccnc3[nH]c(-c4n[nH]c5ccc(C6=CCNCC6)nc45)nc23)s1 [Compound 730, 3-(7-(5-Methylthiophen-2-yl)-3H-imidazo[4,5-b]pyridin-2-yl)-5-(1,2,3,6-tetrahydropyridin-4-yl)-1H-pyrazolo[4,3-b]pyridine]
[1]
  EC50: 489 nM
[2]
  EC50: 558 nM
[3]
  EC50: 3160 nM
[4]
  EC50: 3480 nM

## c1ccc(CNCc2cncc(-c3ccc4[nH]nc(-c5nc6c(-c7ccsc7)ccnc6[nH]5)c4n3)c2)cc1 [Compound 304, N-Benzyl-1-(5-(3-(7-(thiophen-3-yl)-3H-imidazo[4,5-b]pyridin-2-yl)-1H-pyrazolo[4,3-b]pyridin-5-yl)pyridin-3-yl)methanamine]
[1]
  EC50: 1340 nM
[2]
  EC50: 4260 nM
[3]
  EC50: 1970 nM
[4]
  EC50: 1400 nM

## CN(C)CCNc1cc(F)cc(-c2ccnc3[nH]c(-c4n[nH]c5ccc(-c6cncc(OCc7ccccc7)c6)nc45)nc23)c1 [Compound 790, N^1-(3-(2-(5-(5-(Benzyloxy)pyridin-3-yl)-1H-pyrazolo[4,3-b]pyridin-3-yl)-3H-imidazo[4,5-b]pyridin-7-yl)-5-fluorophenyl)-N^2,N^2-dimethylethane-1,2-diamine]
[1]
  EC50: 2500 nM
[2]
  EC50: 4770 nM
[3]
  EC50: 2660 nM
[4]
  EC50: 2220 nM

## FC1(F)CCN(Cc2cncc(-c3ccc4[nH]nc(-c5nc6c(N7CCCCC7)ccnc6[nH]5)c4n3)c2)C1 [Compound 194, 5-(5-((3,3-Difluoropyrrolidin-1-yl)methyl)pyridin-3-yl)-3-(7-(piperidin-1-yl)-3H-imidazo[4,5-b]pyridin-2-yl)-1H-pyrazolo[4,3-b]pyridine]
[1]
  EC50: 1190 nM
[2]
  EC50: 5420 nM
[3]
  EC50: 4140 nM
[4]
  EC50: 832 nM

## Oc1cncc(-c2ccc3[nH]nc(-c4nc5c(N6CCCCC6)ccnc5[nH]4)c3n2)c1 [Compound 613, 5-(3-(7-(Piperidin-1-yl)-3H-imidazo[4,5-b]pyridin-2-yl)-1H-pyrazolo[4,3-b]pyridin-5-yl)pyridin-3-ol]
[1]
  EC50: 2440 nM
[2]
  EC50: 9180 nM
[3]
  EC50: 3290 nM
[4]
  EC50: 3560 nM

## c1csc(-c2ccnc3[nH]c(-c4n[nH]c5ccc(-c6ccncc6)nc45)nc23)c1 [Compound 354, 5-(Pyridin-4-yl)-3-(7-(thiophen-2-yl)-3H-imidazo[4,5-b]pyridin-2-yl)-1H-pyrazolo[4,3-b]pyridine]
[1]
  EC50: 387 nM
[2]
  EC50: 1380 nM
[3]
  EC50: 731 nM
[4]
  EC50: 405 nM

## c1ccc(CNCc2cncc(-c3ccc4[nH]nc(-c5nc6c(-c7cccnc7)ccnc6[nH]5)c4n3)c2)cc1 [Compound 108, N-Benzyl-1-(5-(3-(7-(pyridin-3-yl)-3H-imidazo[4,5-b]pyridin-2-yl)-1H-pyrazolo[4,3-b]pyridin-5-yl)pyridin-3-yl)methanamine]
[1]
  EC50: 8890 nM
[2]
  EC50: 131 nM
[3]
  EC50: 4860 nM
[4]
  EC50: 3320 nM

## CN(C)CCNc1cc(F)cc(-c2ccnc3[nH]c(-c4n[nH]c5ccc(-c6cncc(CNCC7CCCC7)c6)nc45)nc23)c1 [Compound 473, N^1-(3-(2-(5-(5-(((Cyclopentylmethyl)amino)methyl)pyridin-3-yl)-1H-pyrazolo[4,3-b]pyridin-3-yl)-3H-imidazo[4,5-b]pyridin-7-yl)-5-fluorophenyl)-N^2,N^2-dimethylethane-1,2-diamin]
[1]
  EC50: 1530 nM
[2]
  EC50: 2620 nM
[3]
  EC50: 3640 nM
[4]
  EC50: 2820 nM
